According to US11160862B2, “Nanoemulsion adjuvant for nasal mucosa and preparation method thereof” (NATIONAL HEALTH RESEARCH INSTITUTES, priority 2017, dated 2021):

System: B16-F10/OVA cells
Assay: Lung metastasis after intranasal melanoma vaccination, pathological observation of lung
Assay type: in vivo
Conditions: C57BL/6 mice inoculated with B16-F10/OVA cells, intranasal 100 μg/dose once a week for 3 weeks, one week after final vaccination
Experimental: 6-week old female C57BL/6 mice were intravascularly inoculated with B16-F10/OVA cells (melanoma cells expressing OVA epitopes, 5×10^5 cells/mouse). One week later, mice were divided into 4 groups (n=6 per group): vaccinated with PBS, ovalbumin (OVA), OVA adjuvanted with 0.1% PELC and OVA adjuvanted with nanoPELC. The mice were intranasally vaccinated with PBS or OVA formulation (100 μg/dose) once a week for 3 weeks. One week after the final vaccination, some of the mice were sacrificed, and the lung was isolated for pathological observation.

ovalbumin
melanoma infection area in the lungs (lung metastasis): not as serious as the PBS group, but it still had a certain area
